Each block holds one molecule with its values, some of them ahead of it.
Biological target: T1, AsPC-1 HiBiT-KRASG12D (Homo sapiens, UniProt P01116, G12D)
T1 construct: insert the HiBiT tag onto the N-terminus of one or more of the endogenous KRAS alleles; endogenous in cells; host or cells: AsPC-1 (ATCC CRL-1682), CRISPR-Cas9 knock-in clone, one tagged allele
Experiment: HiBiT degradation assay (G12D), AsPC-1 HiBiT-KRASG12D cells
Assay type: cell-based
Details: 24 hours treatment; for Dmax: ASPC1, AsPC-1 HiBiT-KRASG12D cells, maximum degradation observed; for DC50: AsPC-1 HiBiT-KRASG12D cells, HiBiT luminescence
Procedure, shortened: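 AsPC-1 cells carried a CRISPR knock-in of an N-terminal HiBiT tag on endogenous KRAS G12D. After 24 h compound treatment at 37 °C (triplicate), viability was read by alamar blue (4 h, fluorescence, normalized to DMSO). HiBiT-KRAS levels were then measured by Nano-Glo HiBiT lytic luminescence after 45 min at room temperature.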

T1 sequence (P01116 1-188 isoform P01116-2 G12D): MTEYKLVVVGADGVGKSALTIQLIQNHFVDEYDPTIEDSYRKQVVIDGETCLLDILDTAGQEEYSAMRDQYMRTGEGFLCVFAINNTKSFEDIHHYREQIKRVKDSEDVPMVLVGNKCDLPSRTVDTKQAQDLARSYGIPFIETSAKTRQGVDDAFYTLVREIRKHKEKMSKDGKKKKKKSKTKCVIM

SMILES: CCc1cccc2cc(O)cc(-c3ncc4c(N5CC6CCC(C5)N6)nc(OCCN5CCC(CN6CCN(c7cc([C@H](C(=O)N8C[C@H](O)C[C@H]8C(=O)N[C@@H](C)c8ccc(-c9scnc9C)cc8)C(C)C)on7)CC6)CC5)nc4c3F)c12 [Compound 211, (2S,4R)-1-[(2R)-2-(3-{4-[(1-{2-[(4-{3,8-diazabicyclo[3.2.1]octan-3-yl}-7-(8-ethyl-3-hydroxynaphthalen-1-yl)-8-fluoropyrido[4,3-d]pyrimidin-2-yl)oxy]ethyl}piperidin-4-yl)methyl]piperazin-1-yl}-1,2-oxazol-5-yl)-3-methylbutanoyl]-4-hydroxy-N-[(1S)-1-[4-(4-methyl-1,3-thiazol-5-yl)phenyl]ethyl] pyrrolidine-2-carboxamide]
- Dmax: 80 to 100%
- DC50: < 600 nM

SMILES: CCc1cccc2cc(O)cc(-c3ncc4c(N5CC6CCC(C5)N6)nc(OCCN5CCC(C6CN(c7cc([C@@H](C(=O)N8C[C@H](O)C[C@H]8C(=O)N[C@@H](C)c8ccc(-c9scnc9C)cc8)C(C)C)on7)C6)CC5)nc4c3F)c12 (single isomer, unassigned) [Compound 277]
- Dmax: 20 to 60%
- DC50: 1000 to 3000 nM

- DC50: < 600 nM
SMILES: CCc1cccc2cc(O)cc(-c3ncc4c(N5CC6CCC(C5)N6)nc(OC[C@]56CCCN5[C@@H](COc5cc([C@H](C(=O)N7C[C@H](O)C[C@H]7C(=O)N[C@@H](C)c7ccc(-c8scnc8C)cc7)C(C)C)on5)CC6)nc4c3F)c12 [Compound 27, (2S,4R)-1-[(2R)-2-(3-{[(3R,7aR)-7a-{[(4-{3,8-diazabicyclo[3.2.1]octan-3-yl}-7-(8-ethyl-3-hydroxynaphthalen-1-yl)-8-fluoropyrido[4,3-d]pyrimidin-2-yl)oxy]methyl}-hexahydro-1H-pyrrolizin-3-yl]methoxy}-1,2-oxazol-5-yl)-3-methylbutanoyl]-4-hydroxy-N-[(1S)-1-[4-(4-methyl-1,3-thiazol-5-yl)phenyl]ethyl]pyrrolidine-2-carboxamide]

SMILES: CCc1cccc2cc(O)cc(-c3ncc4c(N5CC6CCC(C5)N6)nc(OC[C@]56CCCN5C[C@H](Oc5cc([C@@H](C(=O)N7C[C@H](O)C[C@H]7C(=O)N[C@@H](C)c7ccc(-c8scnc8C)cc7)C(C)C)on5)CC6)nc4c3F)c12 [Compound 319, (2S,4R)-1-[(2S)-2-[3-[[(6R,8aR)-8a-[[4-(3,8-diazabicyclo[3.2.1]octan-3-yl)-7-(8-ethyl-3-hydroxy-1-naphthyl)-8-fluoro-pyrido[4,3-d]pyrimidin-2-yl]oxymethyl]-2,3,5,6,7,8-hexahydro-1H-indolizin-6-yl]oxy]isoxazol-5-yl]-3-methyl-butanoyl]-4-hydroxy-N-[(1S)-1-[4-(4-methylthiazol-5-yl)phenyl]ethyl]pyrrolidine-2-carboxamide]
- Dmax: 60 to 80%
- DC50: 1000 to 3000 nM

SMILES: CCc1cccc2cc(O)cc(-c3ccc4c(N5CC6CCC(C5)N6)nc(OC[C@]56CCCN5[C@H](COC(=O)N5CCN(c7cc(C(C(=O)N8C[C@H](O)C[C@H]8C(=O)N[C@@H](C)c8ccc(-c9scnc9C)cc8)C(C)C)on7)CC5)CC6)nc4c3F)c12 (single isomer, unassigned) [Compound 267]
- Dmax: 80 to 100%
- DC50: < 600 nM

- DC50: > 3000 nM
SMILES: CCc1cccc2cc(O)cc(-c3ncc4c(N5CC6CCC(C5)N6)nc(OC[C@]56CCCN5[C@H](COC(=O)N5CCN(c7cc([C@@H](C(=O)N8C[C@H](O)C[C@H]8C(=O)N[C@@H](C)c8ccc(C#N)cc8)C(C)C)on7)CC5)CC6)nc4c3F)c12 [Compound 67, [(3S,7aR)-7a-{[(4-{3,8-diazabicyclo[3.2.1]octan-3-yl}-7-(8-ethyl-3-hydroxynaphthalen-1-yl)-8-fluoropyrido[4,3-d]pyrimidin-2-yl)oxy]methyl}-hexahydro-1H-pyrrolizin-3-yl]methyl 4-{5-[(2S)-1-[(2S,4R)-2-{[(1S)-1-(4-cyanophenyl)ethyl]carbamoyl}-4-hydroxypyrrolidin-1-yl]-3-methyl-1-oxobutan-2-yl]-1,2-oxazol-3-yl}piperazine-1-carboxylate]

SMILES: C#Cc1c(F)ccc2cc(O)cc(-c3ncc4c(N5CC6CCC(C5)N6)nc(OCCN5CCC6(CC5)CN(c5cc([C@H](C(=O)N7C[C@H](O)C[C@H]7C(=O)N[C@@H](C)c7ccc(-c8scnc8C)cc7)C(C)C)on5)C6)nc4c3F)c12 [Compound 33, (2S,4R)-1-[(2R)-2-[3-(7-{2-[(4-{3,8-diazabicyclo[3.2.1]octan-3-yl}-7-(8-ethynyl-7-fluoro-3-hydroxynaphthalen-1-yl)-8-fluoropyrido[4,3-d]pyrimidin-2-yl)oxy]ethyl}-2,7-diazaspiro[3.5]nonan-2-yl)-1,2-oxazol-5-yl]-3-methylbutanoyl]-4-hydroxy-N-[(1S)-1-[4-(4-methyl-1,3-thiazol-5-yl)phenyl]ethyl]pyrrolidine-2-carboxamide]
- Dmax: 80 to 100%
- DC50: < 600 nM

SMILES: CCc1cccc2cc(O)cc(-c3ncc4c(N5CC6CCC(C5)N6)nc(OC[C@@]56CCCN5[C@H](CN5CCC(COc7cc([C@H](C(=O)N8C[C@H](O)C[C@H]8C(=O)N[C@@H](C)c8ccc(-c9scnc9C)cc8)C(C)C)on7)CC5)CC6)nc4c3F)c12 [Compound 96, (2S,4R)-1-[(2R)-2-{3-[(1-{[(3S,7aS)-7a-{[(4-{3,8-diazabicyclo[3.2.1]octan-3-yl}-7-(8-ethyl-3-hydroxynaphthalen-1-yl)-8-fluoropyrido[4,3-d]pyrimidin-2-yl)oxy]methyl}-hexahydro-1H-pyrrolizin-3-yl]methyl}piperidin-4-yl)methoxy]-1,2-oxazol-5-yl}-3-methylbutanoyl]-4-hydroxy-N-[(1S)-1-[4-(4-methyl-1,3-thiazol-5-yl)phenyl]ethyl]pyrrolidine-2-carboxamide]
- Dmax: 80 to 100%
- DC50: < 600 nM

SMILES: CCc1cccc2cc(O)cc(-c3ncc4c(N5CC6CCC(C5)N6)nc(OC[C@@]56CCCN5[C@H](COc5cc([C@@H](C(=O)N7C[C@H](O)C[C@H]7C(=O)N[C@@H](C)c7ccc(-c8scnc8C)cc7)C(C)C)on5)CC6)nc4c3F)c12 [Compound 30, (2S,4R)-1-[(2S)-2-(3-{[(3S,7aS)-7a-{[(4-{3,8-diazabicyclo[3.2.1]octan-3-yl}-7-(8-ethyl-3-hydroxynaphthalen-1-yl)-8-fluoropyrido[4,3-d]pyrimidin-2-yl)oxy]methyl}-hexahydro-1H-pyrrolizin-3-yl]methoxy}-1,2-oxazol-5-yl)-3-methylbutanoyl]-4-hydroxy-N-[(1S)-1-[4-(4-methyl-1,3-thiazol-5-yl)phenyl]ethyl]pyrrolidine-2-carboxamide]
- Dmax: 20 to 60%
- DC50: < 600 nM

SMILES: C#Cc1c(F)ccc2cc(O)cc(-c3ncc4c(N5CC6CCC(C5)N6)nc(OCCN5CCC(CN6CCN(c7cc([C@H](C(=O)N8C[C@H](O)C[C@H]8C(=O)N[C@@H](C)c8ccc(-c9ccnn9C)cc8)C(C)C)on7)CC6)CC5)nc4c3F)c12 [Compound 190, (2S,4R)-1-[(2R)-2-(3-{4-[(1-{2-[(4-{3,8-diazabicyclo[3.2.1]octan-3-yl}-7-(8-ethynyl-7-fluoro-3-hydroxynaphthalen-1-yl)-8-fluoropyrido[4,3-d]pyrimidin-2-yl)oxy]ethyl}piperidin-4-yl)methyl]piperazin-1-yl}-1,2-oxazol-5-yl)-3-methylbutanoyl]-4-hydroxy-N-[(1S)-1-[4-(1-methyl-1H-pyrazol-5-yl)phenyl]ethyl] pyrrolidine-2-carboxamide]
- Dmax: 80 to 100%
- DC50: < 600 nM

SMILES: CCc1cccc2cc(O)cc(-c3ncc4c(N5CC6CCC(C5)N6)nc(OC[C@]56CCCN5[C@H](COC(=O)N5CC7(C5)CN(c5cc([C@@H](C(=O)N8C[C@H](O)C[C@H]8C(=O)N[C@@H](C)c8ccc(-c9scnc9C)cc8)C(C)C)on5)C7)CC6)nc4c3F)c12 [Compound 144, [(3S,7aR)-7a-{[(4-{3,8-diazabicyclo[3.2.1]octan-3-yl}-7-(8-ethyl-3-hydroxynaphthalen-1-yl)-8-fluoropyrido[4,3-d]pyrimidin-2-yl)oxy]methyl}-hexahydro-1H-pyrrolizin-3-yl]methyl 6-{5-[(2S)-1-[(2S,4R)-4-hydroxy-2-{[(1S)-1-[4-(4-methyl-1,3-thiazol-5-yl)phenyl]ethyl]carbamoyl}pyrrolidin-1-yl]-3-methyl-1-oxobutan-2-yl]-1,2-oxazol-3-yl}-2,6-diazaspiro[3.3]heptane-2-carboxylate]
- Dmax: 20 to 60%
- DC50: 600 to 1000 nM

SMILES: CCc1cccc2cc(O)cc(-c3ncc4c(N5CC6CCC(C5)N6)nc(OCCN5CCC(C6CN(c7cc([C@H](C(=O)N8C[C@H](O)C[C@H]8C(=O)N[C@@H](C)c8ccc(-c9scnc9C)cc8)C(C)C)on7)C6)CC5)nc4c3F)c12 (single isomer, unassigned) [Compound 275]
- Dmax: 80 to 100%
- DC50: < 600 nM

SMILES: CCc1cccc2cc(O)cc(-c3ncc4c(N5CC6CCC(C5)N6)nc(OCCN5CCC(CN6CC7(C6)CN(c6cc([C@H](C(=O)N8C[C@H](O)C[C@H]8C(=O)N[C@@H](C)c8ccc(-c9scnc9C)cc8)C(C)C)on6)C7)CC5)nc4c3F)c12 [Compound 235, (2S,4R)-1-[(2R)-2-[3-[6-[1-[2-[[4-(3,8-diazabicyclo[3.2.1]octan-3-yl)-7-(8-ethyl-3-hydroxy-1-naphthyl)-8-fluoro-pyrido[4,3-d]pyrimidin-2-yl]oxyethyl]-4-piperidyl]methyl]-2,6-diazaspiro[3.3]heptan-2-yl]isoxazol-5-yl]-3-methyl-butanoyl]-4-hydroxy-N-[(1S)-1-[4-(4-methylthiazol-5-yl)phenyl]ethyl]pyrrolidine-2-carboxamide]
- Dmax: 80 to 100%
- DC50: < 600 nM
